The subject of one assay is A2780. In words: Growth inhibition of human A2780 cells by crystal violet assay. Type of assay: functional, cell-based.
The test system of assay [1] is C13. In words: Inhibition of DHFR protein expression in cDDP-resistant human C13 cells at 20 uM incubated for 72 hrs by Western blotting. Type of assay: functional, cell-based. On the technique in general: A western blot detects proteins with antibodies after separation by electrophoresis.
The subject of assay [2] is 2008. In words: Increase in ROS production in human 2008 cells at 20 uM incubated for 72 hrs by CM-H2DCFDA dye based fluorometry. Type of assay: functional.
Assay [3] relates to 2008. In words: Effect on thymidylate synthase protein expression in human 2008 cells at 20 to 40 uM incubated for 72 hrs by Western blotting. The assay is classed as functional, cell-based.
The test system of assay [4] is 2008. In words: Inhibition of DHFR protein expression in human 2008 cells at 40 uM incubated for 72 hrs by Western blotting. Type of assay: functional. The settings on record: Homo sapiens, 2008, 72 h.
Assay [5] has as its system C13. In words: Effect on thymidylate synthase protein expression in cDDP-resistant human C13 cells at 20 to 40 uM incubated for 72 hrs by Western blotting. The assay is classed as functional, cell-based.
In assay [6] the test system is C13. In words: Increase in ROS production in cDDP-resistant human C13 cells at 20 uM incubated for 72 hrs by CM-H2DCFDA dye based fluorometry. The assay is classed as functional, cell-based.
Assay [7] addresses T1, Thymidylate synthase (Homo sapiens, UniProt P04818). In words: Inhibition of human thymidylate synthase expressed in Escherichia coli at 100 uM incubated for 1 hr by spectrophotometry.
Target sequence in this assay (P04818 2-313 limits assumed): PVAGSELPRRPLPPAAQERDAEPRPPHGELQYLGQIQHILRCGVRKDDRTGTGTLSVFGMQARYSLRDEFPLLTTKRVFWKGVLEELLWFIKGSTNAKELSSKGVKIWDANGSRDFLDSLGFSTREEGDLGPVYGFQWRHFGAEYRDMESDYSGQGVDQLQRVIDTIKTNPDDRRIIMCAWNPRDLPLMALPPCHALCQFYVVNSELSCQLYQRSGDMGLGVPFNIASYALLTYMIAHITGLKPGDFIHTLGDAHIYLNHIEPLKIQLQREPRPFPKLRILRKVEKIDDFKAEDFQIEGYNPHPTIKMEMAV
The test system of assay [8] is 2008. In words: Inhibition of DHFR protein expression in human 2008 cells at 20 uM incubated for 72 hrs by Western blotting. Type of assay: functional. Particulars: Homo sapiens, 2008, 72 h.
The nature of assay [9]: Growth inhibition of cDDP-resistant human C13 cells by crystal violet assay. Type of assay: functional, cell-based.
A further assay has as its system Vero. In words: Growth inhibition of african green monkey Vero cells by crystal violet assay. Type of assay: cell-based. The settings on record: Chlorocebus sabaeus.
For assay [10], the system named is C13. In words: Inhibition of DHFR protein expression in cDDP-resistant human C13 cells at 40 uM incubated for 72 hrs by Western blotting. Type of assay: functional, cell-based.
In assay [11] the test system is C13. In words: Increase in ROS production in cDDP-resistant human C13 cells at 40 uM incubated for 72 hrs by CM-H2DCFDA dye based fluorometry. Type of assay: functional, cell-based.
The nature of assay [12]: Growth inhibition of cDDP-resistant human A2780/CP70 cells by crystal violet assay. The assay is classed as functional, cell-based.
For assay [13], the system named is 2008. In words: Growth inhibition of human 2008 cells by crystal violet assay. The assay is classed as functional, cell-based.
Assay [14] deals with T1, Thymidylate synthase. In words: Inhibition of human thymidylate synthase expressed in Escherichia coli incubated for 1 hr by spectrophotometry.
Target sequence in this assay (P04818 whole entry): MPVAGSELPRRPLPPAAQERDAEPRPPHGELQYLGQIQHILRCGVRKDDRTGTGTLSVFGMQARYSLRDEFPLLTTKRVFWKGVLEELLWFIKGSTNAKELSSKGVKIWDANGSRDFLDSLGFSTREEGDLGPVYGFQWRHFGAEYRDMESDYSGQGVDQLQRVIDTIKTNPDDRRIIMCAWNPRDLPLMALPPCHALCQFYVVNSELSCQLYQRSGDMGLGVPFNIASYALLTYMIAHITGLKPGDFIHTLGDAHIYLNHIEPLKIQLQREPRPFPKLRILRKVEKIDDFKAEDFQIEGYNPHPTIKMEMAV
Assay [15] concerns 2008. In words: Increase in ROS production in human 2008 cells at 40 uM incubated for 72 hrs by CM-H2DCFDA dye based fluorometry. The assay is classed as functional.
The target in assay [16] is T1, Thymidylate synthase. In words: Inhibition of human thymidylate synthase expressed in Escherichia coli at 50 uM incubated for 1 hr by spectrophotometry.
Target sequence in this assay (P04818 2-313 limits assumed): as the sequence (P04818 2-313 limits assumed) above
For assay [17], the target named is T1, Thymidylate synthase. In words: Inhibition of human thymidylate synthase expressed in Escherichia coli at 25 uM incubated for 1 hr by spectrophotometry.
Target sequence in this assay (P04818 2-313 limits assumed): as above
Assay [18] has as its target T1, Thymidylate synthase. In words: Inhibition of human thymidylate synthase expressed in Escherichia coli incubated for 1 hr using varying dUMP levels by spectrophotometry based Lineweaver-Burk method.
Target sequence in this assay (P04818 whole entry): as the sequence (P04818 whole entry) above
For assay [19], the target named is T1, Thymidylate synthase. In words: Inhibition of human thymidylate synthase expressed in Escherichia coli incubated for 1 hr assessed as reduction in mTHF Vmax value by spectrophotometry based Lineweaver-Burk method relative to untreated control.
Target sequence in this assay (P04818 2-313 limits assumed): as the sequence (P04818 2-313 limits assumed) above
Assay [20] addresses T1, Thymidylate synthase. In words: Mixed inhibition of human thymidylate synthase expressed in Escherichia coli incubated for 1 hr using varying mTHF and dUMP levels by spectrophotometry based Lineweaver-Burk method.
Target sequence in this assay (P04818 2-313 limits assumed): as above

The source made the active and inactive calls. The calls are words filed in the database; no cut-off is given here.

What is called IC50 is the concentration that inhibits the measured activity by half. In general, inhibition refers to the relative decrease from the control value, in per cent. One may read the Ki as a dissociation constant, usually derived from enzyme kinetics or from competition with a known ligand.

Take `O=C(NC(=O)c1cn(CCNCCO)c(=O)[nH]c1=O)OCc1ccccc1`: the IC50 with A2780 was 6.6 µM; in assay [9] it was 56.8 µM; in the assay with Vero it was more than 80 µM; in assay [12], 16.5 µM; in the assay on 2008 [13], 24.1 µM; at Thymidylate synthase [14], 619 µM. The inhibition entry with C13 [1] and in the assay with C13 [10] was “inactive” in each case. Besides, the “fold change (FC)” value in the assay on 2008 [2] and in the assay on 2008 [15] was 1.5 in each case. For the same molecule, the result in the assay on 2008 [3], in the assay on C13 [5], in the assay with C13 [6] and with C13 [11] was inactive. In the assay with 2008 [4], this molecule came in with an inhibition at 40 µM of 60%. At Thymidylate synthase [7], this molecule yielded an inhibition of 36%. In the assay with 2008 [8], this molecule came in with an inhibition at 20 µM of 40%.

As for `COc1ccc(C)cc1NC(=O)C(=O)N/N=C/c1ccc(OCC(N)=O)cc1`, the IC50 in assay [9] was more than 60 µM; in the assay with 2008 [13] it was more than 60 µM; at Thymidylate synthase [14], 112 µM. The inhibition at Thymidylate synthase [16] came out at 35%.

As to `CCN(CC)CCOC(=O)c1ccc(NS(=O)(=O)c2ccc(C(C)(C)C)cc2)cc1`, on Thymidylate synthase [7], the inhibition was determined as 15%. The concentration for half-maximal inhibition (IC50) (in assay [9]; with 2008 [13]) was more than 60 µM in each case.

Consider `O=C(CC1S/C(=N\N=C\c2ccccc2O)N=C1O)Nc1cccc(C(F)(F)F)c1` (configuration not stated), for which the half-maximal inhibitory concentration (IC50) came to 19.4 µM with A2780; 28.3 µM in assay [9]; 30.3 µM in the assay with Vero; 36.4 µM in [12]; 21.1 µM in the assay on 2008 [13]; 90 µM on Thymidylate synthase [14]. Also, the inhibition at Thymidylate synthase [17] was determined as 33%; on Thymidylate synthase [19], 60%. The same molecule gave an inhibition constant Ki on Thymidylate synthase [18] of 2.5 µM. Further, the inhibition result at Thymidylate synthase [20] was “Active”.

`O=c1[nH]cc(F)c(=O)[nH]1` [FLUOROURACIL]: the IC50 was determined as 5.1 µM in the assay on A2780; 8.5 µM in assay [9]; 4.5 µM in the assay on Vero; 12.3 µM in assay [12]; 4.2 µM in the assay with 2008 [13].

As for `CCCCCn1c(=O)c(C(=O)Nc2ccc(N)cc2)c(O)c2ccccc21`, the IC50 is 4.9 µM with A2780; 9.2 µM in [9]; 10.2 µM in the assay on Vero; 12.3 µM in [12]; 8.8 µM in the assay with 2008 [13]; 71 µM against Thymidylate synthase [14]. On Thymidylate synthase [17], this molecule returned an inhibition of 41%.

For `Cc1ccc(C(=O)C2=C(O)C(=O)N(CCN(C)C)C2c2ccc(OCC(N)=O)cc2)o1` (configuration not stated), the IC50 in the assay with A2780 was 16.4 µM; in assay [9], more than 80 µM; with Vero, more than 80 µM; in assay [12] it was 39.5 µM; with 2008 [13] it was 37.4 µM. The inhibition against Thymidylate synthase [7] is 16%.

The values are drawn from ChEMBL document CHEMBL2177012, “Inhibitor of ovarian cancer cells growth by virtual screening: a new thiazole derivative targeting human thymidylate synthase” (J Med Chem, 2012).
